Reference: the NIST ThermoML archive (doi:10.1016/j.jct.2010.05.002)

Assay: molar heat capacity at constant pressure
Conditions: 101.33 kPa, Crystal 2, Vacuum adiabatic calorimetry

Cc1ccc(-c2ccccc2)cc1 [4-methylbiphenyl]
Conditions	molar heat capacity at constant pressure [J/K/mol]
8.42 K	3.698
8.7 K	3.996
8.96 K	4.244
9.47 K	4.835
9.97 K	5.433
10.28 K	5.778
10.67 K	6.273
11.06 K	6.777
11.44 K	7.338
11.83 K	7.812
12.21 K	8.286
12.59 K	8.722
12.96 K	9.194
13.35 K	9.76
13.72 K	10.44
14.09 K	10.74
14.46 K	11.37
14.83 K	11.81
15.2 K	12.22
15.56 K	12.8
15.92 K	13.35
16.28 K	13.95
16.65 K	14.46
17.01 K	14.64
17.37 K	15.38
17.72 K	16.09
18.08 K	16.37
18.44 K	17.11
18.79 K	17.51
19.88 K	19.13
20.58 K	20.29
21.36 K	21.32
22.14 K	22.38
22.91 K	23.6
23.69 K	24.61
24.46 K	25.76
25.23 K	26.8
26 K	27.57
26.76 K	28.86
27.53 K	30.07
28.29 K	30.9
29.05 K	32.05
29.81 K	33.03
30.57 K	34.28
31.33 K	35.24
32.09 K	36.41
32.86 K	36.83
33.62 K	38.31
34.37 K	39.14
35.13 K	39.93
35.88 K	41.05
36.64 K	41.53
37.39 K	42.34
38.14 K	43.78
38.9 K	44.06
39.65 K	45.4
40.4 K	45.99
41.15 K	46.64
41.9 K	47.81
42.65 K	48.69
43.4 K	49.76
44.15 K	50.64
44.91 K	50.57
45.66 K	51.28
46.41 K	52.33
47.16 K	53.31
47.91 K	53.96
48.65 K	55.09
49.4 K	56.25
50.15 K	56.83
50.9 K	57.26
51.65 K	58.12
52.4 K	59.37
53.15 K	59.9
53.9 K	60.72
54.64 K	61.66
55.39 K	62.7
56.14 K	63.64
56.89 K	63.48
57.64 K	64.25
58.39 K	64.5
59.13 K	64.98
59.88 K	65.47
60.63 K	66.03
61.37 K	65.92
62.12 K	66.39
62.86 K	67.01
63.6 K	67.59
64.35 K	67.75
65.09 K	68.24
65.83 K	68.99
66.57 K	69.46
67.32 K	69.91
68.06 K	70.28
68.8 K	70.75
69.54 K	72.08
70.28 K	72.22
71.18 K	72.29
72.22 K	73.13
73.27 K	74.21
74.32 K	74.62
75.37 K	75.51
76.42 K	75.54
77.47 K	76.16
78.51 K	77.53
78.8 K	78.32
79.56 K	77.92
80.6 K	79.11
81.65 K	79.67
82.17 K	81.46
